The text below walks through data of PubChem BioAssay (NCI).

Common to all, as to assay: NCI tumour cell line growth inhibition, 48 h
Assay [1] deals with M14 melanoma.
The test system of assay [2] is IGROV1 ovarian.
Assay [3] relates to HOP-62 NSCLC.
The subject of assay [4] is UACC-257 melanoma.
For assay [5], the system named is TK-10 renal.
Assay [6] has as its system SK-MEL-2 melanoma.
For assay [7], the system named is HOP-92 NSCLC.
Assay [8] concerns HCT-116 colon.
Assay [9] relates to SW-620 colon.
Assay [10] deals with CAKI-1 renal.
Assay [11] concerns T-47D breast.
Assay [12] has as its system SK-MEL-28 melanoma.
The test system of assay [13] is SNB-19 CNS.
Assay [14] relates to OVCAR-4 ovarian.
Assay [15] concerns SR leukemia.
Assay [16] concerns RPMI-8226 leukemia.
Assay [17] relates to SK-MEL-5 melanoma.
The test system of assay [18] is HL-60(TB) leukemia.
Assay [19] concerns MOLT-4 leukemia.
Assay [20] has as its system RXF 393 renal.

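The compound was tested at five concentrations on cells cultured in 96-well plates, with a 48-hour exposure period. TGI: concentration producing complete growth inhibition.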

In the case of `COc1cc(S(=O)(=O)Nc2ccc(-c3csc(/N=C\c4cccs4)n3)cc2)ccc1Cl`, the TGI in [1], in assay [2], in [3], in [4], in assay [5] and in [6] was > 100 µM each time. In addition, the TGI in assay [7] is > 100 µM; in assay [8], > 100 µM; in assay [9], > 100 µM; in [10] it was > 100 µM; in [11] it was 62.8 µM; in [12], > 100 µM. Besides, the TGI is > 100 µM in assay [13]; > 100 µM in assay [14]; 52.2 µM in assay [15]; > 100 µM in assay [16]; > 100 µM in assay [17].

Take `Brc1ccc(-c2nc(-c3ccc(Br)cc3)n(-c3ccccc3)n2)cc1`: the TGI in assay [1], in assay [2], in assay [3], in assay [4], in assay [5] and in assay [6] was > 100 µM each time. The TGI in assay [7], in assay [8], in assay [18], in assay [9], in [10] and in assay [11] was > 100 µM throughout. For the same compound, the TGI in [12], in assay [13], in assay [14], in assay [17] and in [19] was > 100 µM throughout.

Turning to `CCOC(=O)[C@@H]1C[C@@H]1c1ccc(O)c(O)c1`, the TGI in assay [1] is 25.2 µM; in [2], > 100 µM; in [3], > 100 µM; in assay [4], > 100 µM; in [5], > 100 µM; in [6], 68.8 µM. The TGI in assay [7] was > 100 µM; in assay [8] it was 32.7 µM; in assay [9], 42.2 µM; in assay [10] it was > 100 µM; in assay [11] it was 51.7 µM; in assay [12], > 100 µM. Moreover, the TGI was 54 µM in assay [20]; > 100 µM in [13]; > 100 µM in assay [15]; 77 µM in [16]; 27.5 µM in [17]; 22.5 µM in [19].

As to `Nc1ncnc2c1N=C(c1ccccc1)CC(c1ccccc1)N2` (stereo not drawn), the TGI in assay [1], in assay [3], in assay [4], in assay [5], in [6] and in [7] was > 100 µM in each case. Further, the TGI in [8], in assay [9], in assay [10], in [11], in assay [12] and in [20] was > 100 µM in each case. In addition, the TGI in [13], in [14], in [15], in assay [16] and in assay [19] was > 100 µM each time.

Consider `OC1CSCCSCCCSCCSC1`, for which the TGI in [1], in [2], in assay [3], in assay [4], in assay [5] and in assay [6] was > 100 µM throughout. The TGI in assay [7], in assay [8], in assay [18], in assay [9], in assay [10] and in assay [11] was > 100 µM each time. In addition, the TGI in [12], in assay [20], in [13], in assay [14], in [16] and in assay [17] was > 100 µM throughout. The TGI in assay [19] is > 100 µM.

Turning to `N#C[C@H](C(=O)c1ccccc1F)c1nc2ccccc2[nH]1`, the TGI in [1], in assay [2], in [3], in assay [4], in assay [5] and in [6] was > 100 µM in each case. For the same compound, the TGI in assay [7], in assay [8], in [9], in assay [10], in assay [11] and in assay [12] was > 100 µM throughout. Further, the TGI in assay [20], in assay [13], in [14], in [15], in assay [16] and in assay [19] was > 100 µM each time.

Consider `CC(=O)O[C@H]1C[C@@H](OC(C)=O)[C@@](C)(O)[C@@H]2[C@@H](OC(C)=O)[C@@]3(O)[C@H](/C=C(/CCl)[C@H]4O[C@H]4[C@@H](OC(C)=O)[C@@]12C)OC(=O)[C@@H]3C`, for which the TGI in [1], in assay [2], in assay [3], in [4], in assay [5] and in [6] was > 25 µM throughout. The TGI in [7], in [8], in [9], in [10], in assay [11] and in assay [12] was > 25 µM each time. Also, the TGI in assay [20], in assay [13], in assay [14], in assay [16], in [17] and in assay [19] was > 25 µM throughout.

As to `CCOP(=O)(/C=C/n1cnc2c(=O)n(C(C)=O)c(N)nc21)OCC`, the TGI in [1], in [2], in assay [3], in assay [4], in [5] and in assay [6] was > 100 µM throughout. For the same compound, the TGI in assay [8], in [18], in assay [9], in assay [10], in assay [11] and in assay [12] was > 100 µM each time. The TGI in assay [20], in assay [13], in assay [14], in assay [16], in assay [17] and in assay [19] was > 100 µM in each case.

Regarding `CC(=O)c1sc2c(c1O)c(=O)n(-c1ccccc1)c(=S)n2-c1ccccc1`, the TGI in [1], in [2], in [4], in assay [5], in assay [6] and in assay [7] was > 100 µM each time. The TGI in assay [18], in [9], in [11], in assay [12], in [20] and in assay [13] was > 100 µM throughout. Further, the TGI in assay [14], in assay [16], in assay [17] and in assay [19] was > 100 µM each time.

On to `CC(=O)N1c2ccccc2[C@H]2CCc3c([nH]c4ccccc34)[C@H]21`, for which the TGI in assay [1] is 30.9 µM; in assay [2] it was 44.3 µM; in [3] it was 28.1 µM; in [4], > 100 µM; in [5] it was > 100 µM; in [6], 74.1 µM. For the same compound, the TGI in [7] was 33.5 µM; in assay [8] it was 11.4 µM; in assay [18], 34.2 µM; in assay [9] it was 37.3 µM; in assay [10], 64.4 µM; in assay [11] it was 96.9 µM. Besides, the TGI in assay [12] is 31.1 µM; in assay [20], 28.4 µM; in [13], > 100 µM; in [16], 43.5 µM; in [17] it was 26.2 µM; in [19], 53.1 µM.

For `CO[C@]12C[C@@H](CNC(=O)c3cc(Br)c[nH]3)O[C@H]1NC(=O)N2`, the TGI in [1], in assay [2], in assay [3], in [4], in [5] and in assay [6] was > 100 µM throughout. For the same compound, the TGI in assay [7], in assay [8], in assay [18], in assay [9], in [10] and in assay [11] was > 100 µM throughout. For the same compound, the TGI in assay [12], in [13], in [14], in [16], in [17] and in assay [19] was > 100 µM throughout.

Regarding `CCOC(=O)C(C)(Cc1ccc(O)cn1)NC(=O)c1ccccc1` (stereo not drawn), the TGI in assay [1], in assay [2], in assay [3], in assay [4], in assay [5] and in assay [6] was > 100 µM in each case. The TGI in assay [7], in assay [8], in [18], in assay [9], in assay [10] and in assay [12] was > 100 µM in each case. The TGI in assay [20], in [13], in assay [14], in assay [15], in [16] and in assay [17] was > 100 µM in each case. Moreover, the TGI in [19] is > 100 µM.

As for `CCCCOCCOCCOC1=C(Cl)C(=O)c2c(O)ccc(O)c2C1=O`, the TGI in assay [1] is 0.317 µM; in [2], 2.78 µM; in [3] it was 2.53 µM; in [4], 2.6 µM; in [5] it was 2.63 µM; in [7], 0.437 µM. Besides, the TGI worked out at 1.41 µM in assay [8]; 1.75 µM in assay [9]; 0.388 µM in assay [10]; 2.52 µM in assay [11]; 1.41 µM in assay [12]; 2.05 µM in [20]. The TGI in assay [13] worked out at 3.2 µM; in assay [14] it was 1.38 µM; in assay [15], 0.117 µM; in assay [16], 1.32 µM; in [17], 1.53 µM; in assay [19], 0.1 µM.

In the case of `CC1=NNC(=O)[C@H]2[C@H]1CCC1[C@@H]2CC[C@]2(C)[C@@H](O)CC[C@@H]12` (stereo partly drawn), the TGI in assay [1], in [2], in assay [3], in [4], in assay [5] and in assay [6] was > 100 µM in each case. The TGI in assay [7], in assay [8], in assay [18], in assay [9], in assay [10] and in assay [11] was > 100 µM throughout. Further, the TGI in assay [12], in assay [20], in assay [13], in assay [14], in assay [16] and in assay [17] was > 100 µM throughout. In addition, the TGI in assay [19] was > 100 µM.

As for `CCOP(=O)(/C=C\n1ccc(=O)[nH]c1=O)OCC`, the TGI in assay [1], in [2], in [3], in assay [4], in assay [5] and in assay [6] was > 100 µM each time. Moreover, the TGI in assay [8], in assay [18], in [9], in assay [10], in assay [11] and in assay [12] was > 100 µM each time. In addition, the TGI in [20], in [13], in assay [14], in assay [16], in [17] and in [19] was > 100 µM each time.
